Our source for the EC50 and potency values is patent US12617783B2, “Heterocyclic GLP-1R agonists” (BIOMEA FUSION, INC., priority 2024, dated 2026).

T1 sequence (P43220 24-463): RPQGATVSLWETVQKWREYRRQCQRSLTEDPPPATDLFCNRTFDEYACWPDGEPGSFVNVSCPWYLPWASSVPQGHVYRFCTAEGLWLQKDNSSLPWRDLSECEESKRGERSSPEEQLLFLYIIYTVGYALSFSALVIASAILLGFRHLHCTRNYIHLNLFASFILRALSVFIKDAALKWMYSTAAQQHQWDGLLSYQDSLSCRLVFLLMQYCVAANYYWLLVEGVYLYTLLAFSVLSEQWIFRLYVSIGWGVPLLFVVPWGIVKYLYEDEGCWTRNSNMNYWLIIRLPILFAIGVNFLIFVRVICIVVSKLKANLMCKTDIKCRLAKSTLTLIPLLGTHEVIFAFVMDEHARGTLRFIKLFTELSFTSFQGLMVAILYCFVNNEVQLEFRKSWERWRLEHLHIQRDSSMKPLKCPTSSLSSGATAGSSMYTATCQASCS

The first test addresses T1, human GLP-1R (Homo sapiens, UniProt P43220).
T1 construct: host or cells: HEK293
The test is described as follows: GLP-1R cAMP assay (Example B1a, HTRF, 30 min at room temperature). As to conditions: cAMP accumulation in HEK293 expressing human GLP-1R, no BETP, 30 min room temperature (Method B1a, compounds ID 1-609), Table 1; read-out: EC50. It is filed as cell-based. Here is the method:
Assay was carried out with HEK293 expressing human GLP-1R using HTRF assay, developed by Wuxi Apptec. The method is a competitive assay between native cAMP produced by the cells and exogenous cAMP labeled with a proprietary dye d2. The tracer binding is visualized by a mAb anti-cAMP labeled with Cryptate. The signal (i.e. energy transfer) is inversely proportional to the concentration of CAMP in either standard or experimental sample. Compounds were tested in the absence of BETP. Ten microliter of cell suspension in assay buffer (5 mM HEPES, 500 μM IBMX, 0.1% BSA) were added to each well (1,000 cells per well) in a low volume 384-well plate for the assay. Serially diluted compounds were added in 100 nL volume to duplicate wells, by Labcyte Echo. GLP-1 (7-37) was used as positive control. Assay plate was incubated for 30 minutes at room temperature. Stock of cAMP Detection Solution was prepared by mixing 38 parts of cAMP lysis buffer, 1 part of cAMP-D2, 1 part of anti-cAMP cryptate reagent (Cisbio #62AM4PEJ). Ten microliter of the cAMP Detection Solution was added to each well, and the assay plate was incubated for 1 hour at room temperature in the dark. Plates were read on Envision plate reader. The data were analyzed by ScreenUltra in Dotmatics, with % activation expressed using following formula: (Well data−negative control)/(postive control−negative control)*100. Dose response curves were plotted and EC50 values calculated by non-linear regression using 4-parameter fit.
For orientation: EC50 means the concentration at which the effect is half-maximal. On to `Cc1cc(-n2nc3c(c2-c2nc(-c4ccc5c(cnn5C)c4F)c(C)[nH]2)[C@H](C)N(C(=O)c2cc4cc([C@H]5CCOC(C)(C)C5)ccc4n2[C@@]2(c4noc(=O)[nH]4)C[C@@H]2C)CC3)cc(C)c1F` [Compound 24, 3-((1S,2S)-1-(5-((S)-2,2-dimethyltetrahydro-2H-pyran-4-yl)-2-((S)-3-(4-(4-fluoro-1-methyl-1H-indazol-5-yl)-5-methyl-1H-imidazol-2-yl)-2-(4-fluoro-3,5-dimethylphenyl)-4-methyl-4,5,6,7-tetrahydro-2H-pyrazolo[4,3-c]pyridine-5-carbonyl)-1H-indol-1-yl)-2-methylcyclopropyl)-1,2,4-oxadiazol-5 (4H)-one], for which the EC50 is over 10 µM. Still for that read-out and setting: under `Cc1cc(-n2nc3c(c2N2CCN(c4ccc5c(cnn5C)c4F)C(=O)C2=O)[C@H](C)N(C(=O)c2cc4cc([C@H]5CCOC(C)(C)C5)ccc4n2[C@@]2(c4noc(=O)[nH]4)C[C@@H]2C)CC3)cc(C)c1F` [Compound 28, 1-((S)-5-(5-((S)-2,2-dimethyltetrahydro-2H-pyran-4-yl)-1-((1S,2S)-2-methyl-1-(5-oxo-4,5-dihydro-1,2,4-oxadiazol-3-yl)cyclopropyl)-1H-indole-2-carbonyl)-2-(4-fluoro-3,5-dimethylphenyl)-4-methyl-4,5,6,7-tetrahydro-2H-pyrazolo[4,3-c]pyridin-3-yl)-4-(4-fluoro-1-methyl-1H-indazol-5-yl) piperazine-2,3-dione] stands over 10 µM. Same read-out and setting: under `Cc1cc(-n2nc3c(c2-c2ncn(-c4ccc5c(cnn5C)c4F)c2C)[C@H](C)N(C(=O)c2cc4cc([C@H]5CCOC(C)(C)C5)ccc4n2C2(c4noc(=O)[nH]4)CC2)CC3)cc(C)c1F` [Compound 30, 3-(1-(5-((S)-2,2-dimethyltetrahydro-2H-pyran-4-yl)-2-((4S)-3-(1-(4-fluoro-1-methyl-1H-indazol-5-yl)-5-methyl-1H-imidazol-4-yl)-2-(4-fluoro-3,5-dimethylphenyl)-4-methyl-4,5,6,7-tetrahydro-2H-pyrazolo[4,3-c]pyridine-5-carbonyl)-1H-indol-1-yl)cyclopropyl)-1,2,4-oxadiazol-5 (4H)-one] stands over 10 µM; under `Cc1cc(-n2nc3c(c2-n2ccn(-c4ccc5c(cnn5C)c4F)c2=O)C2CCC(C3)N2C(=O)c2cc3cc([C@H]4CCOC(C)(C)C4)ccc3n2[C@@]2(c3noc(=O)[nH]3)C[C@@H]2C)cc(C)c1F` (stereo partly drawn) [Compound 32, 3-((1S,2S)-1-(5-((S)-2,2-dimethyltetrahydro-2H-pyran-4-yl)-2-(3-(3-(4-fluoro-1-methyl-1H-indazol-5-yl)-2-oxo-2,3-dihydro-1H-imidazol-1-yl)-2-(4-fluoro-3,5-dimethylphenyl)-2,4,5,6,7,8-hexahydro-4,7-epiminocyclohepta [c]pyrazole-9-carbonyl)-1H-indol-1-yl)-2-methylcyclopropyl)-1,2,4-oxadiazol-5 (4H)-one], 0.0926 µM.

For `Cc1cc(-n2nc3c(c2-n2ccn(-c4ccc5c(cnn5C)c4F)c2=O)[C@H]2CC[C@@H](C3)N2C(=O)c2cc3cc([C@H]4CCOC(C)(C)C4)ccc3n2[C@@]2(c3noc(=O)[nH]3)C[C@@H]2C)cc(C)c1F` [Compound 35, 3-((1S,2S)-1-(5-((S)-2,2-dimethyltetrahydro-2H-pyran-4-yl)-2-((4R,7S)-3-(3-(4-fluoro-1-methyl-1H-indazol-5-yl)-2-oxo-2,3-dihydro-1H-imidazol-1-yl)-2-(4-fluoro-3,5-dimethylphenyl)-2,4,5,6,7,8-hexahydro-4,7-epiminocyclohepta [c]pyrazole-9-carbonyl)-1H-indol-1-yl)-2-methylcyclopropyl)-1,2,4-oxadiazol-5 (4H)-one], the EC50 is at least 100 µM. Consider `Cc1cc(-n2nc3c(c2-c2ncn(-c4ccc5c(cnn5C)c4F)c2C)[C@H](C)N(C(=O)c2cc4cc(C5=CCC(F)(F)CC5)ccc4n2C2(c4noc(=O)[nH]4)CC2)CC3)cc(C)c1F` [Compound 105, 3-[1-[5-(4,4-difluorocyclohexen-1-yl)-2-[(4S)-2-(4-fluoro-3,5-dimethyl-phenyl)-3-[1-(4-fluoro-1-methyl-indazol-5-yl)-5-methyl-imidazol-4-yl]-4-methyl-6,7-dihydro-4H-pyrazolo[4,3-c]pyridine-5-carbonyl]indol-1-yl]cyclopropyl]-4H-1,2,4-oxadiazol-5-one], for which the EC50 is over 10 µM. Take `Cc1cc(-n2nc3c(c2-c2ncn(-c4ccc5c(cnn5C)c4F)c2C)[C@H](C)N(C(=O)c2cc4cc(C5CCC(F)(F)CC5)ccc4n2C2(c4noc(=O)[nH]4)CC2)CC3)cc(C)c1F` [Compound 106, 3-[1-[5-(4,4-difluorocyclohexyl)-2-[(4S)-2-(4-fluoro-3,5-dimethyl-phenyl)-3-[1-(4-fluoro-1-methyl-indazol-5-yl)-5-methyl-imidazol-4-yl]-4-methyl-6,7-dihydro-4H-pyrazolo[4,3-c]pyridine-5-carbonyl]indol-1-yl]cyclopropyl]-4H-1,2,4-oxadiazol-5-one]: the concentration for a half-maximal effect (EC50) is over 10 µM.

`Cc1cc(-n2nc3c(c2-c2ncn(-c4ccc5c(cnn5C)c4F)c2C)[C@H](C)N(C(=O)c2cc4cc(N5C6CCC5COC6)ccc4n2C2(c4noc(=O)[nH]4)CC2)CC3)cc(C)c1F` [Compound 107, 3-[1-[2-[(4S)-2-(4-fluoro-3,5-dimethyl-phenyl)-3-[1-(4-fluoro-1-methyl-indazol-5-yl)-5-methyl-imidazol-4-yl]-4-methyl-6,7-dihydro-4H-pyrazolo[4,3-c]pyridine-5-carbonyl]-5-(3-oxa-8-azabicyclo[3.2.1]octan-8-yl)indol-1-yl]cyclopropyl]-4H-1,2,4-oxadiazol-5-one]: the EC50 is over 10 µM. Still for that read-out and setting: for `Cc1cc(-n2nc3c(c2-c2ncn(-c4ccc5c(cnn5C)c4F)c2C)[C@H](C)N(C(=O)c2cc4cc(N5CCS(=O)(=O)CC5)ccc4n2C2(c4noc(=O)[nH]4)CC2)CC3)cc(C)c1F` [Compound 108, 3-[1-[5-(1,1-dioxo-1,4-thiazinan-4-yl)-2-[(4S)-2-(4-fluoro-3,5-dimethyl-phenyl)-3-[1-(4-fluoro-1-methyl-indazol-5-yl)-5-methyl-imidazol-4-yl]-4-methyl-6,7-dihydro-4H-pyrazolo[4,3-c]pyridine-5-carbonyl]indol-1-yl]cyclopropyl]-4H-1,2,4-oxadiazol-5-one] the value was over 10 µM.

As to `Cc1cc(-n2nc3c(c2-n2ccn(-c4ccc5c(cnn5C)c4F)c2=O)[C@@H]2CC[C@H](C3)N2C(=O)c2cc3cc([C@H]4CCOC(C)(C)C4)ccc3n2C2(c3noc(=O)[nH]3)CC2)cc(C)c1F` [Compound 114, 3-(1-(5-((S)-2,2-dimethyltetrahydro-2H-pyran-4-yl)-2-((4S,7R)-3-(3-(4-fluoro-1-methyl-1H-indazol-5-yl)-2-oxo-2,3-dihydro-1H-imidazol-1-yl)-2-(4-fluoro-3,5-dimethylphenyl)-2,4,5,6,7,8-hexahydro-4,7-epiminocyclohepta [c]pyrazole-9-carbonyl)-1H-indol-1-yl)cyclopropyl)-1,2,4-oxadiazol-5 (4H)-one], the EC50 was 0.593 µM. For the compound `Cc1cc(-n2nc3c(c2-n2ccn(-c4ccc5c(cnn5C)c4F)c2=O)[C@H](C)N(C(=O)c2cc4cc([C@H]5CCOC(C)(C)C5)ccc4n2C(=O)c2noc(=O)[nH]2)CC3)cc(C)c1F` [Compound 115, 3-[5-[(4S)-2,2-dimethyltetrahydropyran-4-yl]-2-[(4S)-2-(4-fluoro-3,5-dimethyl-phenyl)-3-[3-(4-fluoro-1-methyl-indazol-5-yl)-2-oxo-imidazol-1-yl]-4-methyl-6,7-dihydro-4H-pyrazolo[4,3-c]pyridine-5-carbonyl]indole-1-carbonyl]-4H-1,2,4-oxadiazol-5-one], the EC50 is over 10 µM. Take `Cc1cc(-n2nc3c(c2-n2ccn(-c4ccc5c(cnn5C)c4F)c2=O)C2COCC(C3)N2C(=O)c2cc3cc([C@H]4CCOC(C)(C)C4)ccc3n2[C@@]2(c3noc(=O)[nH]3)C[C@@H]2C)cc(C)c1F` (stereo partly drawn) [Compound 116, 3-((1S,2S)-1-(5-((S)-2,2-dimethyltetrahydro-2H-pyran-4-yl)-2-(3-(3-(4-fluoro-1-methyl-1H-indazol-5-yl)-2-oxo-2,3-dihydro-1H-imidazol-1-yl)-2-(4-fluoro-3,5-dimethylphenyl)-2,4,5,7,8,9-hexahydro-4,8-epiminooxocino [5,4-c]pyrazole-10-carbonyl)-1H-indol-1-yl)-2-methylcyclopropyl)-1,2,4-oxadiazol-5(4H)-one]: the EC50 was 0.174 µM. On the same count and under the same terms, under `Cc1cc(-n2nc3c(c2-n2ccn(-c4ccc(C(N)=O)c(F)c4)c2=O)[C@@H]2CC[C@H](C3)N2C(=O)c2cc3cc([C@H]4CCOC(C)(C)C4)ccc3n2C2(c3noc(=O)[nH]3)CC2)cc(C)c1F` [Compound 117, 4-[3-[(1S,8R)-11-[5-[(4S)-2,2-dimethyltetrahydropyran-4-yl]-1-[1-(5-oxo-4H-1,2,4-oxadiazol-3-yl)cyclopropyl]indole-2-carbonyl]-4-(4-fluoro-3,5-dimethyl-phenyl)-4,5,11-triazatricyclo[6.2.1.02,6]undeca-2,5-dien-3-yl]-2-oxo-imidazol-1-yl]-2-fluoro-benzamide] stands over 10 µM.

The same test, now with this note: text to Table 1d, bridge atoms configured out of the plane or toward the reader.
As to `Cc1cc(-n2nc3c(c2-n2ccn(-c4ccc5c(cnn5C)c4F)c2=O)[C@H]2CC[C@@H](C3)N2C(=O)c2cc3cc([C@H]4CCOC(C)(C)C4)ccc3n2[C@@]2(c3noc(=O)[nH]3)C[C@@H]2C)cc(C)c1F` [Compound 35, 3-((1S,2S)-1-(5-((S)-2,2-dimethyltetrahydro-2H-pyran-4-yl)-2-((4R,7S)-3-(3-(4-fluoro-1-methyl-1H-indazol-5-yl)-2-oxo-2,3-dihydro-1H-imidazol-1-yl)-2-(4-fluoro-3,5-dimethylphenyl)-2,4,5,6,7,8-hexahydro-4,7-epiminocyclohepta [c]pyrazole-9-carbonyl)-1H-indol-1-yl)-2-methylcyclopropyl)-1,2,4-oxadiazol-5 (4H)-one], the potency entry is “little or no potency”.
